From patent US8653110B2, “Active compound combination comprising azadirachtin and a substituted enaminocarbonyl compound” (Bayer CropScience AG, priority 2010, dated 2014)

Tested on: Cyclocephala immaculata
Experiment: Watering test with beetle larvae (Example 2)
Type: in vivo
Details: L3 larvae, watering, (I-1) 600, azadirachtin 60, (I-1)+azadirachtin 600+60, trichlorfon 4529 g of active compound/ha
Description: Beetle larvae (grubs) are important lawn pests. On the one hand, they feed on grass roots, damaging them directly, on the other hand they are a favoured food for birds which, searching for grubs, destroy the turf. For treatment against grubs, infested lawns are usually watered with insecticidal compositions. This type of treatment is emulated in the laboratory by Example 2.
To prepare a suitable active compound preparation, a commercial formulation of active compound or active compound combination is mixed with water until the desired concentration is reached. Pots with soil substrate were watered with the following active compound preparations: • 1. untreated • 2. compound (I-1) as SL 200, 600 g of active compound/ha • 3. azadirachtin, 60 g of active compound/ha • 4. compound (I-1) as SL 200+azadirachtin, 600+60 g of active compound/ha • 5. positive control: trichlorfon 4529 g of active compound/ha
L3 larvae of Cyclocephala immaculata were placed onto the pots. After 1, 4, 7, 14 days, the survival rate was determined, and this was used to calculate the efficacy of the compositions. 100% means that all grubs were killed, 0% means no activity.

Q: How did the “Effect on day 1 in %” value (day 1) turn out when `COP(=O)(OC)C(O)C(Cl)(Cl)Cl` (stereo not shown) [trichlorfon] was run?
A: 0%

Q: What about the “Effect on day 4 in %” value (day 4) of the same compound?
A: 17%

Q: And the “Effect on day 7 in %” value (day 7)?
A: 29%

Q: And the “Effect on day 14 in %” value (day 14)?
A: 50%
